Assay results taken from ChEMBL document CHEMBL5724806, “Unraveling interindividual differences and functional consequences of gut microbial metabolism of immunosuppressants” (2024).

Assays:
Format in all cases: ADME
[1] = (§1) The drug is tested on Streptococcus anginosus strain: DSM20563 for biotransformation under anaerobic condition. The drug concentrations were measured over 6 timepoints collected between 0 and 12 hours of incubation by liquid-chromatography-coupled mass spectrometry (LC–MS); design: dose 5 uM, timepoint 0, 1.5, 3, 6, 9, 12 hours; settings: 5 µM
[2] = (§2) The drug is tested on Streptococcus sanguinis strain: DSM20567 for biotransformation under microaerobic condition. The drug concentrations were measured over 6 timepoints collected between 0 and 12 hours of incubation by liquid-chromatography-coupled mass spectrometry (LC–MS); design: dose 5 uM, timepoint 0, 1.5, 3, 6, 9, 12 hours; settings: 5 µM
[3] = The drug is tested on Blautia hansenii strain: DSM20583 for biotransformation under anaerobic condition. The drug concentrations were measured over 6 timepoints collected between 0 and 12 hours of incubation by liquid-chromatography-coupled mass spectrometry (LC–MS); design: dose 5 uM, timepoint 0, 1.5, 3, 6, 9, 12 hours; settings: 5 µM
[4] = The drug is tested on Eubacterium hallii strain: DSM3353 for biotransformation under anaerobic condition. The drug concentrations were measured over 6 timepoints collected between 0 and 12 hours of incubation by liquid-chromatography-coupled mass spectrometry (LC–MS); design: dose 5 uM, timepoint 0, 1.5, 3, 6, 9, 12 hours; settings: anaerobutyricum hallii, 5 µM
[5] = The drug is tested on Gemella haemolysans strain: DSM107751 for biotransformation under microaerobic condition. The drug concentrations were measured over 6 timepoints collected between 0 and 12 hours of incubation by liquid-chromatography-coupled mass spectrometry (LC–MS); design: dose 5 uM, timepoint 0, 1.5, 3, 6, 9, 12 hours; settings: 5 µM
[6] = The drug is tested on Lactobacillus ruminis strain: ATCC25644 for biotransformation under microaerobic condition. The drug concentrations were measured over 6 timepoints collected between 0 and 12 hours of incubation by liquid-chromatography-coupled mass spectrometry (LC–MS); design: dose 5 uM, timepoint 0, 1.5, 3, 6, 9, 12 hours; settings: ligilactobacillus ruminis, 5 µM
[7] = The drug is tested on Bacteroides fragilis strain: DSM2151 for biotransformation under anaerobic condition. The drug concentrations were measured over 6 timepoints collected between 0 and 12 hours of incubation by liquid-chromatography-coupled mass spectrometry (LC–MS); design: dose 5 uM, timepoint 0, 1.5, 3, 6, 9, 12 hours; settings: 5 µM
[8] = The drug is tested on Alloscardovia omnicolens strain: DSM21503 for biotransformation under anaerobic condition. The drug concentrations were measured over 6 timepoints collected between 0 and 12 hours of incubation by liquid-chromatography-coupled mass spectrometry (LC–MS); design: dose 5 uM, timepoint 0, 1.5, 3, 6, 9, 12 hours; settings: 5 µM
[9] = The drug is tested on Clostridium ramosum strain: DSM1402 for biotransformation under anaerobic condition. The drug concentrations were measured over 6 timepoints collected between 0 and 12 hours of incubation by liquid-chromatography-coupled mass spectrometry (LC–MS); design: dose 5 uM, timepoint 0, 1.5, 3, 6, 9, 12 hours; settings: thomasclavelia ramosa, 5 µM
[10] = The drug is tested on Bacteroides xylanisolvens strain: HM 722 for biotransformation under anaerobic condition. The drug concentrations were measured over 6 timepoints collected between 0 and 12 hours of incubation by liquid-chromatography-coupled mass spectrometry (LC–MS); design: dose 5 uM, timepoint 0, 1.5, 3, 6, 9, 12 hours; settings: 5 µM
[11] = The drug is tested on Bacteroides caccae strain: DSM19024 for biotransformation under anaerobic condition. The drug concentrations were measured over 6 timepoints collected between 0 and 12 hours of incubation by liquid-chromatography-coupled mass spectrometry (LC–MS); design: dose 5 uM, timepoint 0, 1.5, 3, 6, 9, 12 hours; settings: 5 µM
[12] = The drug is tested on Lactobacillus fermentum strain: DSM20052 for biotransformation under anaerobic condition. The drug concentrations were measured over 6 timepoints collected between 0 and 12 hours of incubation by liquid-chromatography-coupled mass spectrometry (LC–MS); design: dose 5 uM, timepoint 0, 1.5, 3, 6, 9, 12 hours; settings: limosilactobacillus fermentum, 5 µM
[13] = The drug is tested on Eubacterium eligens strain: DSM3376 for biotransformation under anaerobic condition. The drug concentrations were measured over 6 timepoints collected between 0 and 12 hours of incubation by liquid-chromatography-coupled mass spectrometry (LC–MS); design: dose 5 uM, timepoint 0, 1.5, 3, 6, 9, 12 hours; settings: lachnospira eligens, 5 µM
[14] = The drug is tested on Clostridium scindens strain: DSM5676 for biotransformation under anaerobic condition. The drug concentrations were measured over 6 timepoints collected between 0 and 12 hours of incubation by liquid-chromatography-coupled mass spectrometry (LC–MS); design: dose 5 uM, timepoint 0, 1.5, 3, 6, 9, 12 hours; settings: 5 µM
[15] = The drug is tested on Streptococcus salivarius strain: DSM20560 for biotransformation under microaerobic condition. The drug concentrations were measured over 6 timepoints collected between 0 and 12 hours of incubation by liquid-chromatography-coupled mass spectrometry (LC–MS); design: dose 5 uM, timepoint 0, 1.5, 3, 6, 9, 12 hours; settings: 5 µM
[16] = as §2, with “the gut metagenome community of P-01 with ENA study accession number: PRJEB31790” for “Streptococcus sanguinis strain: DSM20567”, “7” for “6”; design: dose 5 uM, timepoint 0, 0.75, 1.5, 3, 6, 9, 12 hours; settings: 5 µM
[17] = The drug is tested on Dorea formicigenerans strain: DSM3992 for biotransformation under anaerobic condition. The drug concentrations were measured over 6 timepoints collected between 0 and 12 hours of incubation by liquid-chromatography-coupled mass spectrometry (LC–MS); design: dose 5 uM, timepoint 0, 1.5, 3, 6, 9, 12 hours; settings: 5 µM
[18] = The drug is tested on Parabacteroides merdae strain: DSM19495 for biotransformation under anaerobic condition. The drug concentrations were measured over 6 timepoints collected between 0 and 12 hours of incubation by liquid-chromatography-coupled mass spectrometry (LC–MS); design: dose 5 uM, timepoint 0, 1.5, 3, 6, 9, 12 hours; settings: 5 µM
[19] = as §2, with “the gut metagenome community of A-09 with ENA study accession number: PRJEB31790” for “Streptococcus sanguinis strain: DSM20567”, “7” for “6”; design: dose 5 uM, timepoint 0, 0.75, 1.5, 3, 6, 9, 12 hours; settings: 5 µM
[20] = as §1, with “the gut metagenome community of A-06 with ENA study accession number: PRJEB31790” for “Streptococcus anginosus strain: DSM20563”, “7” for “6”; design: dose 5 uM, timepoint 0, 0.75, 1.5, 3, 6, 9, 12 hours; settings: 5 µM
[21] = as §2, with “the gut metagenome community of P-04 with ENA study accession number: PRJEB31790” for “Streptococcus sanguinis strain: DSM20567”, “7” for “6”; design: dose 5 uM, timepoint 0, 0.75, 1.5, 3, 6, 9, 12 hours; settings: 5 µM
[22] = The drug is tested on Lactobacillus gasseri strain: DSM20243 for biotransformation under microaerobic condition. The drug concentrations were measured over 6 timepoints collected between 0 and 12 hours of incubation by liquid-chromatography-coupled mass spectrometry (LC–MS); design: dose 5 uM, timepoint 0, 1.5, 3, 6, 9, 12 hours; settings: 5 µM
[23] = as §1, with “the gut metagenome community of A-09 with ENA study accession number: PRJEB31790” for “Streptococcus anginosus strain: DSM20563”, “7” for “6”; design: dose 5 uM, timepoint 0, 0.75, 1.5, 3, 6, 9, 12 hours; settings: 5 µM
[24] = as §1, with “the gut metagenome community of A-10 with ENA study accession number: PRJEB31790” for “Streptococcus anginosus strain: DSM20563”, “7” for “6”; design: dose 5 uM, timepoint 0, 0.75, 1.5, 3, 6, 9, 12 hours; settings: 5 µM
[25] = The drug is tested on Akkermansia muciniphila strain: DSM22959 for biotransformation under anaerobic condition. The drug concentrations were measured over 6 timepoints collected between 0 and 12 hours of incubation by liquid-chromatography-coupled mass spectrometry (LC–MS); design: dose 5 uM, timepoint 0, 1.5, 3, 6, 9, 12 hours; settings: 5 µM
[26] = The drug is tested on Gemella haemolysans strain: DSM107751 for biotransformation under anaerobic condition. The drug concentrations were measured over 6 timepoints collected between 0 and 12 hours of incubation by liquid-chromatography-coupled mass spectrometry (LC–MS); design: dose 5 uM, timepoint 0, 1.5, 3, 6, 9, 12 hours; settings: 5 µM
[27] = The drug is tested on Lactobacillus fermentum strain: DSM20052 for biotransformation under microaerobic condition. The drug concentrations were measured over 6 timepoints collected between 0 and 12 hours of incubation by liquid-chromatography-coupled mass spectrometry (LC–MS); design: dose 5 uM, timepoint 0, 1.5, 3, 6, 9, 12 hours; settings: limosilactobacillus fermentum, 5 µM
[28] = The drug is tested on Lactobacillus ruminis strain: ATCC25644 for biotransformation under anaerobic condition. The drug concentrations were measured over 6 timepoints collected between 0 and 12 hours of incubation by liquid-chromatography-coupled mass spectrometry (LC–MS); design: dose 5 uM, timepoint 0, 1.5, 3, 6, 9, 12 hours; settings: ligilactobacillus ruminis, 5 µM
[29] = The drug is tested on Enterococcus faecalis strain: ATCC29212 for biotransformation under anaerobic condition. The drug concentrations were measured over 6 timepoints collected between 0 and 12 hours of incubation by liquid-chromatography-coupled mass spectrometry (LC–MS); design: dose 5 uM, timepoint 0, 1.5, 3, 6, 9, 12 hours; settings: 5 µM

SMILES	Bacterial Biotransformation [1]	Bacterial Biotransformation [2]	Bacterial Biotransformation [3]	Bacterial Biotransformation [4]	Bacterial Biotransformation [5]	Bacterial Biotransformation [6]	Bacterial Biotransformation [7]	Bacterial Biotransformation [8]	Bacterial Biotransformation [9]	Bacterial Biotransformation [10]	Bacterial Biotransformation [11]	Bacterial Biotransformation [12]	Bacterial Biotransformation [13]	Bacterial Biotransformation [14]	Bacterial Biotransformation [15]	Bacterial Biotransformation [16]	Bacterial Biotransformation [17]	Bacterial Biotransformation [18]	Bacterial Biotransformation [19]	Bacterial Biotransformation [20]	also measured
C[C@]12C=CC(=O)C=C1CC[C@@H]1[C@@H]2C(=O)C[C@@]2(C)[C@H]1CC[C@]2(O)C(=O)CO [PREDNISONE]	Compound NOT metabolized	Compound NOT metabolized	Compound NOT metabolized	Compound NOT metabolized	Compound NOT metabolized	Compound NOT metabolized	Compound NOT metabolized	Compound NOT metabolized	Compound NOT metabolized	Compound NOT metabolized	Compound NOT metabolized	Compound NOT metabolized	Compound NOT metabolized	Compound metabolized	Compound NOT metabolized	Compound metabolized	Compound NOT metabolized	Compound NOT metabolized	Compound metabolized	Compound metabolized	Bacterial Biotransformation [21]: Compound metabolized; Bacterial Biotransformation [22]: Compound NOT metabolized; Bacterial Biotransformation [23]: Compound metabolized; Bacterial Biotransformation [24]: Compound metabolized; Bacterial Biotransformation [25]: Compound metabolized; Bacterial Biotransformation [26]: Compound NOT metabolized; Bacterial Biotransformation [27]: Compound NOT metabolized; Bacterial Biotransformation [28]: Compound NOT metabolized; Bacterial Biotransformation [29]: Compound NOT metabolized
NS(=O)(=O)c1cc(C(=O)O)c(NCc2ccco2)cc1Cl [FUROSEMIDE]	Compound NOT metabolized	Compound NOT metabolized	Compound NOT metabolized	Compound NOT metabolized	Compound NOT metabolized	Compound NOT metabolized	Compound NOT metabolized	Compound NOT metabolized	Compound NOT metabolized	Compound NOT metabolized	Compound NOT metabolized	Compound NOT metabolized	Compound NOT metabolized	Compound NOT metabolized	Compound NOT metabolized	Compound NOT metabolized	Compound NOT metabolized	Compound NOT metabolized	Compound NOT metabolized	Compound NOT metabolized	Bacterial Biotransformation [21]: Compound NOT metabolized; Bacterial Biotransformation [22]: Compound NOT metabolized; Bacterial Biotransformation [23]: Compound NOT metabolized; Bacterial Biotransformation [24]: Compound NOT metabolized; Bacterial Biotransformation [25]: Compound NOT metabolized; Bacterial Biotransformation [26]: Compound NOT metabolized; Bacterial Biotransformation [27]: Compound NOT metabolized; Bacterial Biotransformation [28]: Compound NOT metabolized; Bacterial Biotransformation [29]: Compound NOT metabolized
COc1ccc([C@@H]2Sc3ccccc3N(CCN(C)C)C(=O)[C@@H]2OC(C)=O)cc1 [DILTIAZEM]	Compound NOT metabolized	Compound NOT metabolized	Compound NOT metabolized	Compound NOT metabolized	Compound NOT metabolized	Compound NOT metabolized	Compound NOT metabolized	Compound NOT metabolized	Compound NOT metabolized	Compound metabolized	Compound NOT metabolized	Compound NOT metabolized	Compound NOT metabolized	Compound NOT metabolized	Compound metabolized	Compound metabolized	Compound NOT metabolized	Compound metabolized	Compound metabolized	Compound metabolized	Bacterial Biotransformation [21]: Compound NOT metabolized; Bacterial Biotransformation [22]: Compound metabolized; Bacterial Biotransformation [23]: Compound metabolized; Bacterial Biotransformation [24]: Compound NOT metabolized; Bacterial Biotransformation [25]: Compound NOT metabolized; Bacterial Biotransformation [26]: Compound NOT metabolized; Bacterial Biotransformation [27]: Compound NOT metabolized; Bacterial Biotransformation [28]: Compound NOT metabolized; Bacterial Biotransformation [29]: Compound NOT metabolized
